# Experimental data from patent US10774064B2 (Cadent Therapeutics, Inc., priority 2016, dated 2020).
# Target: T1, small-conductance Ca2+-activated K+ channels (SK channels, subtype 2) (Homo sapiens, UniProt Q9H2S1)
# T1 construct: expressed in transfected cells; host or cells: HEK293
# Assay: whole-cell patch-clamp of ionic current through SK2 channels in HEK293 cells (SC100)
# Format: cell-based
# Details: concentration that increases the basal current by 100%; HEK293 cells expressing SK2 channels
# Method in brief: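 Whole-cell patch-clamp recording of current in HEK293 cells expressing SK2 channels. SC100 is the compound concentration that increases basal current by 100%.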
row,Compound,SC100
1,"Cc1cc(C)n(-c2cc(NC(C)c3nccs3)cc(NC3CCC(F)(F)CC3)n2)n1 (centres unmarked) [Compound 255, N2-(4,4-difluorocyclohexyl)-6-(3,5-dimethyl-1H-pyrazol-1-yl)-N4-(1-(thiazol-2-yl)ethyl)pyridine-2,4-diamine]",+ (+ means >1 uM)
2,"Cc1cc(C)n(-c2cc(C(C)(C)O)cc(NC3CCC(F)(F)CC3)n2)n1 [Compound 206, 2-(2-((4,4-difluorocyclohexyl)amino)-6-(3,5-dimethyl-1H-pyrazol-1-yl)pyridin-4-yl)propan-2-ol]",+ (+ means >1 uM)
3,"Cc1cc(C)n(-c2nc(CF)cc(NC3CCC(F)(F)CC3)n2)n1 [Compound 165, N-(4,4-difluorocyclohexyl)-2-(3,5-dimethyl-1H-pyrazol-1-yl)-6-(fluoromethyl)pyrimidin-4-amine]",+ (+ means >1 uM)
4,"CCOC(=O)N1CC(Oc2cc(NC3CCC(F)(F)CC3)nc(-n3ccc(CF)n3)n2)C1 [Compound 287, ethyl 3-((6-((4,4-difluorocyclohexyl)amino)-2-(3-(fluoromethyl)-1H-pyrazol-1-yl)pyrimidin-4-yl)oxy)azetidine-1-carboxylate]",++ (++ means 200 nM-1000 nM)
5,"Cc1nc(-c2cc(NC3CCC(F)(F)CC3)nc(-n3ccc(CF)n3)n2)no1 [Compound 334, N-(4,4-difluorocyclohexyl)-2-(3-(fluoromethyl)-1H-pyrazol-1-yl)-6-(5-methyl-1,2,4-oxadiazol-3-yl)pyrimidin-4-amine]",+ (+ means >1 uM)
6,"Cc1ccn(-c2nc(NC3CCC(F)(F)CC3)cc(NC3CC(C)(C)C3)n2)n1 [Compound 156, N4-(4,4-difluorocyclohexyl)-N6-(3,3-dimethylcyclobutyl)-2-(3-methyl-1H-pyrazol-1-yl)pyrimidine-4,6-diamine]",++ (++ means 200 nM-1000 nM)

# Same assay, conditions: whole-cell patch-clamp, HEK293 cells expressing SK2 channels; concentration that increases the basal current by 100%
row,Compound,SC100 (μM)
1,"COc1nc(-c2nc(C)cs2)nc(NC2CCC(F)(F)CC2)c1OCc1cnco1 [IN11125-091-P1, N-(4,4-difluorocyclohexyl)-6-methoxy-2-(4-methylthiazol-2-yl)-5-(oxazol-5-ylmethoxy)pyrimidin-4-amine]",+ (+ means >1 uM)
2,Cc1cn(CCOc2cc(NC3CCC(F)(F)CC3)nc(-n3ccc(C)n3)c2)nn1 [NSSy6849],++ (++ means 200 nM-1000 nM)
3,"Cc1cc(C)n(-c2nc(NC3CCC(F)(F)CC3)cc(N3CCOC(C#N)C3)n2)n1 (centres unmarked) [IN10971-081-P1, 4-(6-((4,4-difluorocyclohexyl)amino)-2-(3,5-dimethyl-1H-pyrazol-1-yl)pyrimidin-4-yl) morpholine-2-carbonitrile]",++ (++ means 200 nM-1000 nM)
4,Cc1csc(-c2nc(CN(C)C=O)cc(NC3CCC(F)(F)CC3)n2)n1 [IN11059-095-P1],++ (++ means 200 nM-1000 nM)
5,COC(=O)N1CC(Oc2cc(NC3CCC(F)CC3)nc(-n3ccc(C)n3)n2)C1 (centres unmarked) [NSSy5741],+ (+ means >1 uM)
6,"CC1=NN(c2nc(NC3CCC(F)(F)CC3)cc(N3CCOCC3)n2)CC1 [IN11196-041-P1, N-(4,4-difluorocyclohexyl)-2-(3-methyl-4,5-dihydro-1H-pyrazol-1-yl)-6-morpholinopyrimidin-4-amine]",+ (+ means >1 uM)
7,Cc1cc(C)n(-c2nc(NC3CCCC(F)(F)C3)cc(N3CCOCC3)n2)n1 (centres unmarked) [NSSy6265],+ (+ means >1 uM)
8,Cc1csc(-c2nc(NC3CCC(F)(F)CC3)cc(N3CCOC(COC(C)C)C3)n2)n1 (centres unmarked) [IN10964-007-P1],+++ (+++ means <200 nM)
9,"Cc1ccc(-c2nc(NC3CCC(F)(F)CC3)cc(C(C)O)n2)o1 (centres unmarked) [IN10971-088-P1, 1-(6-((4,4-difluorocyclohexyl)amino)-2-(5-methylfuran-2-yl)pyrimidin-4-yl) ethan-1-ol]",+ (+ means >1 uM)
10,"CC(O)c1cc(NC2CCC(F)(F)CC2)nc(-n2ccc(C3CC3)n2)n1 (centres unmarked) [NSSy6881, 1-(2-(3-cyclopropyl-1H-pyrazol-1-yl)-6-((4,4-difluorocyclohexyl)amino)pyrimidin-4-yl) ethan-1-ol]",+ (+ means >1 uM)
11,Cc1ccn(-c2nc(NC3CCC(N(C)C)CC3)cc(N3CCOCC3)n2)n1 (centres unmarked) [NSSy6540],+ (+ means >1 uM)
12,"COC(=O)c1nc(C)cc(NC2CCC(F)(F)CC2)n1 [IN11273-006-P1, methyl 4-((4,4-difluorocyclohexyl)amino)-6-methylpyrimidine-2-carboxylate]",+ (+ means >1 uM)
13,Cc1cc(C)n(-c2cc(N3CC4CCC(C3)O4)nc(NC3CCC(F)(F)CC3)n2)n1 [NSSy6644],+ (+ means >1 uM)
14,COC[C@H]1CN(c2cc(NC3CCC(F)(F)CC3)nc(-c3nc(C)cs3)n2)CCO1 [NSSy5796],+++ (+++ means <200 nM)
15,Cc1csc(-c2nc(NC3CCC(F)(F)CC3)cc(N3CCS(=O)(=O)CC3)n2)n1 [NSSy6062],+++ (+++ means <200 nM)
16,Cc1csc(-c2nc(NC3CCC(F)(F)CC3)cc(N3CC4CC3CN4C)n2)n1 (centres unmarked) [IN10987-056-P1],++ (++ means 200 nM-1000 nM)
17,"Cc1cc(NC2CCC(F)(F)CC2)cc(-c2nc(C)cs2)c1 [IN11063-086-P2, N-(4,4-difluorocyclohexyl)-3-methyl-5-(4-methylthiazol-2-yl) aniline]",+ (+ means >1 uM)
18,"COC(=O)N1CC(Oc2cc(NC3CC=C(C)CC3)nc(-c3nc(C)cs3)c2)C1 (centres unmarked) [NSSy5980, methyl 3-((2-((4-methylcyclohex-3-en-1-yl)amino)-6-(4-methylthiazol-2-yl)pyridin-4-yl)oxy)azetidine-1-carboxylate]",++ (++ means 200 nM-1000 nM)
19,"Cc1ccn(-c2cc(C(C)OC(=O)N(C)C)cc(NC3CCC(F)(F)CC3)n2)n1 (centres unmarked) [IN11054-003-P1, 1-(2-((4,4-difluorocyclohexyl)amino)-6-(3-methyl-1H-pyrazol-1-yl)pyridin-4-yl)ethyl dimethylcarbamate]",++ (++ means 200 nM-1000 nM)
20,Cc1csc(-c2nc(NC3(C)CCCCC3)cc(N3CCOCC3)n2)n1 [IN10973-099-P1],+ (+ means >1 uM)
21,Cc1csc(-c2nc(NC3CCC(F)(F)CC3)cc(N3CCC(CO)C3)n2)n1 (centres unmarked) [IN10882-020-P1],++ (++ means 200 nM-1000 nM)
22,CC(=O)N1CCC(Oc2cc(NC3CCC(F)(F)CC3)nc(-c3nc(C)cs3)n2)CC1 [NSSy6258],++ (++ means 200 nM-1000 nM)
23,Cc1ccn(-c2nc(NC(C)C)cc(N3CCOC(CO)C3)n2)n1 (centres unmarked) [IN10882-057-P1],+ (+ means >1 uM)
24,COc1cc(NC2CCOCC2)nc(-c2nc(C)cs2)n1 [IN11106-004-P1],+ (+ means >1 uM)
25,COc1cc(NC2CCCCC2)nc(-c2nc(C)cs2)n1 [IN11067-035-P1],++ (++ means 200 nM-1000 nM)
26,Cc1cc(C)n(-c2nc(N3CCOCC3)cc(N(O)C3CCC(F)(F)CC3)n2)n1 [NSSy6386],+ (+ means >1 uM)
27,"Cc1ccn(-c2cc(N3CCOCC3)cc([C@@H](O)c3ccc(F)cc3)n2)n1 [NSSy6513, (S)-(4-fluorophenyl)(6-(3-methyl-1H-pyrazol-1-yl)-4-morpholinopyridin-2-yl)methanol]",+ (+ means >1 uM)
28,"Cc1ccn(-c2nc(NC3CCC(F)(F)CC3)cc(OC3CC(F)C3)n2)n1 (centres unmarked) [NSSy5647, N-(4,4-difluorocyclohexyl)-6-(3-fluorocyclobutoxy)-2-(3-methyl-1H-pyrazol-1-yl)pyrimidin-4-amine]",++ (++ means 200 nM-1000 nM)
29,COC(=O)N1CCC(c2cc(NC3CCC(F)(F)CC3)nc(-n3ccc(C)n3)c2)CC1 [NSSy6885],+++ (+++ means <200 nM)
